US11427548B2 (Arvinas Operations, Inc., priority 2015, dated 2022)
Where two headings read alike, the source gives them in different places.

Target: T1, Androgen Receptor (Homo sapiens, UniProt P10275)
T1 construct: endogenous in cells; host or cells: VCaP cells
T1 sequence (P10275 1-920): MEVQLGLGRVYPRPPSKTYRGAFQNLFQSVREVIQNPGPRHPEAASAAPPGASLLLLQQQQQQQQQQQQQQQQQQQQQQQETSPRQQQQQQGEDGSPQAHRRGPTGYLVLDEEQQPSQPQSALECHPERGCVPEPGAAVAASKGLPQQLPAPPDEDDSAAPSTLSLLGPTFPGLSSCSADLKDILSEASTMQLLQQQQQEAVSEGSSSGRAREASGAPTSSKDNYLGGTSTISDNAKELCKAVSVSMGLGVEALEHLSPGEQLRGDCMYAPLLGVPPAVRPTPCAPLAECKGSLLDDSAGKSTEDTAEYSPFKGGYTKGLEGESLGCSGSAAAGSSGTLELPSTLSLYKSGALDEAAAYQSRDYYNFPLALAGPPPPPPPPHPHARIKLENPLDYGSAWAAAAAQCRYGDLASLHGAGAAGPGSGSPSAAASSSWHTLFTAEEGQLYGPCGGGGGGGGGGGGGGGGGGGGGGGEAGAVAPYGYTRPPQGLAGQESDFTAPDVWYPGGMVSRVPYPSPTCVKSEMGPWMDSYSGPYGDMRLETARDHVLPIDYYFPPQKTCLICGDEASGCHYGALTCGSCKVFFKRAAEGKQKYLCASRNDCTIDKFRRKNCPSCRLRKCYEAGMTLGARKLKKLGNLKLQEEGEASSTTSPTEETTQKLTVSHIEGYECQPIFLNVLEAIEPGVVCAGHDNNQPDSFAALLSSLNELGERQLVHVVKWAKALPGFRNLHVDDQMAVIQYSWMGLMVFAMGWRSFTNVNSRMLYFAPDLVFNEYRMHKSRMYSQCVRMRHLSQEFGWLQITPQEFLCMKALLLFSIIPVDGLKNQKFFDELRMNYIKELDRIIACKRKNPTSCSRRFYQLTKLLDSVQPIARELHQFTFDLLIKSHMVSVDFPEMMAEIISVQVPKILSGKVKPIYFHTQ
Experiment: Androgen Receptor ELISA assay (PathScan AR ELISA) in VCaP cells: AR degradation, Dmax and DC50
Format: cell-based
Protocol: 1. Androgen Receptor ELISA Assay.
The protocols used with VCaP cells are described below. The androgen receptor ELISA assay was performed using PathScan AR ELISA (Cell Signaling Catalog #12850) according to the following assay steps:
VCaP cells are seeded at 30,000 cells/well at a volume of 200 μL/well in VCaP assay medium [Phenol red free RPMI (Gibco Cat #11835-030); 5% Charcoal Stripped (Dextran treated) FBS (Omega Scientific, Cat #FB-04); Pen/Strep Life Technologies (Gibco Cat #: 10378-016); 0.1 nM R1881 (Sigma, Cat #R0908) is added upon the start of the assay, not during initial plating of the cells) in Corning 3904 plates. The cells are grown for a minimum of 3 days.
First, cells are dosed with compounds diluted in 0.1% DMSO—use a polypropylene plate according to the following protocol: (1)(i) make 1000× stock plate in DMSO; (ii) 20 mM stock diluted 1/6.7 with DMSO (5 μL+28.3 μL DMSO)=3 mM into row H; (iii) perform serial dilutions in ½ log doses (10 μL of PROTAC+20 μL DMSO) from row H towards row B. Reserve row A for DMSO; (iv) 7 doses total (final concentration in this 1000× plate will be 3 mM, 1 mM, 333 μM, 111 μM, etc). (2)(i) Make 10× stock plate in media; (ii) transfer 2.5 μL of the 1000× stock to a new 10× stock plate (use 12 channel pipet, start at A (DMSO control) work thru H. When 247.5 μL of media is added to this plate, it will serve as a 10× stock; (iii) make media+1 nM R1881 for making 10× stock plate; (iv) add 247.5 μL of media with 1 nM R1881 to each well of the 10× stock plate, mix.
Then 22 μL of 10× stock is added to cells and incubated for 24 h. 1× Cell Signaling Cell lysis buffer is made (Catalogue #9803; comes with the kit)—prepare for 50 μL/well. Keep on ice. Media is aspirated, and 50 μL 1× cell lysis buffer/well is added. The cells are placed on ice for 10 minutes. The solution is mixed and transferred to PCR plate, and centrifuged at 4C for 10 minutes at 4000 rpm.
5 μL is transferred to fresh plate (use immediately or freeze −80 C); 115 μL ELISA Dilutant is added (0.15 ug/ml-0.075 ug/ml; comes with the PathScan ELISA).
Add 100 μL/well AR Elisa; cover and shake, 37 C for 2 hrs; dump, tap, wash 4×200 μL ELISA wash buffer; add 100 μL/well mouse AR detection Ab; cover and shake, 37 C for 1 hr; dump, tap, wash 4×200 μL ELISA wash buffer; add 100 μL/well anti-mouse—HRP conjugated Ab (comes with the kit); cover and shake, 37 C for 30 min; allow TMB reagent to come to room temperature; dump, tap, wash 4×200 μL Elisa wash buffer; tap; add 100 μL TMB, shake 5 min—while watching color. Add the stop reagent when light blue color develops. Add 100 μL Stop solution; shake and read at 450 nm.

[1] = read-out: VCaP DC50; concentration that caused 50% Androgen Receptor degradation, VCaP cells
[2] = VCaP, highest percentage of Androgen Receptor degradation observed, VCaP cells; read-out: VCaP Dmax (%)
[3] = concentration that caused 50% Androgen Receptor degradation, VCaP cells; read-out: VCaP DC50

Structure (SMILES) | Dmax (VCaP, read-out: VCaP Dmax (%)) | DC50 [1] | Dmax [2] | DC50 [3]
Cc1ncoc1-c1ccc(CNC(=O)[C@@H]2C[C@@H](O)CN2C(=O)[C@@H](NC(=O)COCCCOCCCCOc2ccc(N3C(=S)N(c4ccc(C#N)c(C(F)(F)F)c4)C(=O)C3(C)C)cc2)C(C)(C)C)cc1 [Example 35, (2S,4R)-1-[(2S)-2-(2-{3-[4-(4-{3-[4-cyano-3-(trifluoromethyl)phenyl]-5,5-dimethyl-4-oxo-2-sulfanylideneimidazolidin-1-yl}phenoxy)butoxy]propoxy}acetamido)-3,3-dimethylbutanoyl]-4-hydroxy-N-{[4-(4-methyl-1,3-oxazol-5-yl)phenyl]methyl}pyrrolidine-2-carboxamide] | 51 to 70% | < 50 nM | – | –
CC(C)[C@H](NC(=O)COCCCOCCCCOc1ccc(N2C(=S)N(c3ccc(C#N)c(Cl)c3)C(=O)C2(C)C)cc1)C(=O)N1C[C@H](O)C[C@H]1C(=O)NCc1ccc(-c2cncs2)cc1 [Example 36] | 26 to 50% | < 50 nM | – | –
Cc1ncsc1-c1ccc(CNC(=O)[C@@H]2C[C@@H](O)CN2C(=O)[C@@H](NC(=O)COCCCOCCCCOc2ccc(N3C(=S)N(c4cnc(C#N)c(Cl)c4)C(=O)C3(C)C)cc2)C(C)(C)C)cc1 [Example 37, (2S,4R)-1-[(2S)-2-{2-[3-(4-{4-[3-(5-chloro-6-cyanopyridin-3-yl)-5,5-dimethyl-4-oxo-2-sulfanylideneimidazolidin-1-yl]phenoxy}butoxy)propoxy]acetamido}-3,3-dimethylbutanoyl]-4-hydroxy-N-{[4-(4-methyl-1,3-thiazol-5-yl)phenyl]methyl}pyrrolidine-2-carboxamide] | – | – | > 71% | < 50 nM
Cc1ncoc1-c1ccc(CNC(=O)[C@@H]2C[C@@H](O)CN2C(=O)[C@@H](NC(=O)COCCCOCCCCOc2ccc(N3C(=S)N(c4ccc(C#N)c(Cl)c4)C(=O)C3(C)C)cc2)C(C)(C)C)cc1 [Example 38, (2S,4R)-1-[(2S)-2-{2-[3-(4-{4-[3-(3-chloro-4-cyanophenyl)-5,5-dimethyl-4-oxo-2-sulfanylideneimidazolidin-1-yl]phenoxy}butoxy)propoxy]acetamido}-3,3-dimethylbutanoyl]-4-hydroxy-N-{[4-(4-methyl-1,3-oxazol-5-yl)phenyl]methyl}pyrrolidine-2-carboxamide] | 51 to 70% | < 50 nM | – | –
Cc1ncoc1-c1ccc(CNC(=O)[C@@H]2C[C@@H](O)CN2C(=O)[C@@H](NC(=O)COCCCOCCCCOc2ccc(N3C(=S)N(c4ccc(C#N)c(Cl)c4)C(=O)C3(C)C)cc2)C(C)C)cc1 [Example 39] | 26 to 50% | < 50 nM | – | –
Cc1ncsc1-c1ccc(CNC(=O)[C@@H]2C[C@@H](O)CN2C(=O)[C@@H](NC(=O)COCCCOCCCCOc2ccc(N3C(=S)N(c4ccc(C#N)c(C(F)(F)F)c4)C(=O)C3(C)C)cn2)C(C)(C)C)cc1 [Example 40, (2S,4R)-1-[(2S)-2-[2-(3-{4-[(5-{3-[4-cyano-3-(trifluoromethyl)phenyl]-5,5-dimethyl-4-oxo-2-sulfanylideneimidazolidin-1-yl}pyridin-2-yl)oxy]butoxy}propoxy)acetamido]-3,3-dimethylbutanoyl]-4-hydroxy-N-{[4-(4-methyl-1,3-thiazol-5-yl)phenyl]methyl}pyrrolidine-2-carboxamide] | 51 to 70% | < 50 nM | – | –
Cc1ncsc1-c1ccc(CNC(=O)[C@@H]2C[C@@H](O)CN2C(=O)[C@@H](NC(=O)COCCCOCCCCOc2ccc(N3C(=S)N(c4ccc(C#N)c(Cl)c4)C(=O)C3(C)C)cc2F)C(C)(C)C)cc1 [Example 41, (2S,4R)-1-[(2S)-2-{2-[3-(4-{4-[3-(3-chloro-4-cyanophenyl)-5,5-dimethyl-4-oxo-2-sulfanylideneimidazolidin-1-yl]-2-fluorophenoxy}butoxy)propoxy]acetamido}-3,3-dimethylbutanoyl]-4-hydroxy-N-{[4-(4-methyl-1,3-thiazol-5-yl)phenyl]methyl}pyrrolidine-2-carboxamide] | > 71% | < 50 nM | – | –
COc1cc(N2C(=O)C(C)(C)N(c3ccc(OCCCCOCCCOCC(=O)N[C@H](C(=O)N4C[C@H](O)C[C@H]4C(=O)NCc4ccc(-c5scnc5C)cc4)C(C)(C)C)c(F)c3)C2=S)ccc1C#N [Example 42, (2S,4R)-1-[(2S)-2-{2-[3-(4-{4-[3-(4-cyano-3-methoxyphenyl)-5,5-dimethyl-4-oxo-2-sulfanylideneimidazolidin-1-yl]-2-fluorophenoxy}butoxy)propoxy]acetamido}-3,3-dimethylbutanoyl]-4-hydroxy-N-{[4-(4-methyl-1,3-thiazol-5-yl)phenyl]methyl}pyrrolidine-2-carboxamide] | – | – | 51 to 70% | < 50 nM
Cc1ncsc1-c1ccc(CNC(=O)[C@@H]2C[C@@H](O)CN2C(=O)[C@@H](NC(=O)COCCCOCCCCOc2ccc(N3C(=S)N(c4ccc(C#N)c(C(F)(F)F)c4)C(=O)C34CCOCC4)cc2)C(C)(C)C)cc1 [Example 43, (2S,4R)-1-[(2S)-2-(2-{3-[4-(4-{3-[4-cyano-3-(trifluoromethyl)phenyl]-4-oxo-2-sulfanylidene-8-oxa-1,3-diazaspiro[4.5]decan-1-yl}phenoxy)butoxy]propoxy}acetamido)-3,3-dimethylbutanoyl]-4-hydroxy-N-{[4-(4-methyl-1,3-thiazol-5-yl)phenyl]methyl}pyrrolidine-2-carboxamide] | 51 to 70% | < 50 nM | – | –
Cc1ncoc1-c1ccc(CNC(=O)[C@@H]2C[C@@H](O)CN2C(=O)[C@@H](NC(=O)COCCCOCCCCOc2ccc(N3C(=S)N(c4ccc(C#N)c(Cl)c4)C(=O)C3(C)C)cc2F)C(C)(C)C)cc1 [Example 44, (2S,4R)-1-[(2S)-2-{2-[3-(4-{4-[3-(3-chloro-4-cyanophenyl)-5,5-dimethyl-4-oxo-2-sulfanylideneimidazolidin-1-yl]-2-fluorophenoxy}butoxy)propoxy]acetamido}-3,3-dimethylbutanoyl]-4-hydroxy-N-{[4-(4-methyl-1,3-oxazol-5-yl)phenyl]methyl}pyrrolidine-2-carboxamide] | > 71% | < 50 nM | – | –
CC(C)(C)[C@H](NC(=O)COCCCOCCCCOc1ccc(N2C(=S)N(c3ccc(C#N)c(Cl)c3)C(=O)C2(C)C)cc1F)C(=O)N1C[C@H](O)C[C@H]1C(=O)NCc1ccc(-c2cnco2)cc1 [Example 45, (2S,4R)-1-[(2S)-2-{2-[3-(4-{4-[3-(3-chloro-4-cyanophenyl)-5,5-dimethyl-4-oxo-2-sulfanylideneimidazolidin-1-yl]-2-fluorophenoxy}butoxy)propoxy]acetamido}-3,3-dimethylbutanoyl]-4-hydroxy-N-{[4-(1,3-oxazol-5-yl)phenyl]methyl}pyrrolidine-2-carboxamide] | > 71% | < 50 nM | – | –
